The values that follow come from US20080118573A1, “Use of Heavy Metals in the Treatment of Biofilms” (priority 2004, published 2008).

What all share (assay type): cell-based
Assay [1] relates to Escherichia coli JM109 planktonic and biofilm bacteria. The experiment in a line: MBEC-HTP antibiotic susceptibility, E. coli. Particulars: for MBEC: E. coli JM109 biofilm. The protocol:
(§1) Luria-Bertani medium was chosen for two reasons: 1) its established use in studies of metal resistance, and 2) because of the use of rich media in NCCLS testing protocols for antimicrobial resistance. Antibiotic resistance assays were performed using cation-adjusted Mueller-Hinton broth (CA-MHB, BDH Inc.) and subcultures, MBC and MBEC bacterial counts were performed using trypticase soy agar (TSA, Difco).
(§2) The present study used a novel high throughput method for screening biofilm susceptibility to metal cations and oxyanions: the MBEC device (MBEC Bioproducts Inc., Edmonton, Alberta, Canada, http://www.mbec.ca). The MBEC high throughput (MBEC-HTP) assay system consists of a shallow trough into which a plastic lid with 96 pegs fits. This peg lid also fits over a standard 96-well microtitre plate which can subsequently be used to setup serial dilutions of antimicrobial compounds. The bottom half of the MBEC device is a trough that has shallow channels that direct flow of an inoculated suspension over the pegs on the lid.
(§3) The inoculum was standardized to a 1.0 McFarland standard and verified by viable counts. The 1.0 McFarland standard inoculum was diluted 30-fold with growth media, which served as the growth suspension to inoculate the MBECJ device.
(§4) P. aeruginosa was incubated for 9 h, S. aureus for 24 h and E. coli for 24 h to generate approximately equivalent biofilms of 6.0×10^6 cfu/peg. Following the incubation period, growth of biofilm and planktonic cultures in the MBECJ device were discerned and verified by viable cell counts.
(§5) Chloramphenicol (Sigma) was prepared in 50% ethanol and treated identically to the other antibiotics. 10% ethanol was added to the growth controls for chloramphenicol assays. […] Starting with the working solutions, serial two-fold dilutions were made in the wells of a 96-well plate (the challenge plate), leaving the first well of each row as a sterility control and the second as a growth control (i.e. no antibiotic).

The subject of assay [2] is Pseudomonas aeruginosa ATCC 27853 planktonic and biofilm bacteria. The experiment in a line: MBEC-HTP antibiotic susceptibility, P. aeruginosa. Particulars: for MBEC: P. aeruginosa ATCC 27853 biofilm; for MBC / MIC: Pseudomonas aeruginosa. On the procedure: as §1, §2, §3, §4, §5
The subject of assay [3] is Staphylococcus aureus ATCC 29213 planktonic and biofilm bacteria. Particulars: LB+B1, 24 h exposure; for MIC: S. aureus ATCC 29213; for MBEC: S. aureus ATCC 29213 biofilm; for MBC: S. aureus ATCC 29213 planktonic.
Assay [4] concerns Pseudomonas aeruginosa ATCC 27853 planktonic and biofilm bacteria. Particulars: LB+B1, 24 h exposure; for MIC: P. aeruginosa ATCC 27853; for MBEC: P. aeruginosa ATCC 27853 biofilm; for MBC: P. aeruginosa ATCC 27853 planktonic.
In assay [5] the test system is Escherichia coli JM109 planktonic and biofilm bacteria. Particulars: LB+B1, 24 h exposure; for MIC: E. coli JM109; for MBEC: E. coli JM109 biofilm; for MBC: E. coli JM109 planktonic.
Assay [6] deals with Pseudomonas aeruginosa biofilms. The experiment in a line: Metal and antibiotic combination assay. As to conditions: for MBC / MIC: Pseudomonas aeruginosa; for MBC / MIC / MBEC: median of 4 replicates; for MBC: read-out: MBC; for MIC: read-out: MIC. On the procedure: Cells were grown to a mean density of 6.0×10^6 cfu/peg in LB+B1 media.
• 1. […] All data are median values based on 4 replicates.

Where [7] appears, read: antibiotic in combination with 200 μg/ml Cu^2+.
Setting [8] is: antibiotic or heavy metal alone, LB+B1.

≈ marks a conversion by molar mass, not a printed value. Where two headings read alike, the source gives them in different places. A value given as a limit tells only on which side of the number the result lay.

In the case of `CC1(C)S[C@@H]2[C@H](NC(=O)[C@H](N)c3ccccc3)C(=O)N2[C@H]1C(=O)O` [Ampicillin], the MBEC in assay [1] (CA-MHB, 24 h exposure) was 1024 ± 0 µg/mL; in assay [2] (CA-MHB, 24 h exposure), over 512 µg/mL. Also, the MBC is 64 µg/mL (≈ 183 µM) in assay [1] (Escherichia coli, 24 h) and over 512 µg/mL in assay [2] (ATCC27853, 24 h). The MIC was 4 µg/mL (≈ 11.4 µM) in assay [1] (Escherichia coli, 24 h) and over 512 µg/mL in assay [2] (ATCC27853, 24 h).
In assay [3], `O=[Se](O)O` [SeO3^2−, selenous acid] gave an MIC of 16 ± 0 mM (≈ 2060 µg/mL), an MBEC of 16 ± 0 mM and an MBC of 16 ± 0 mM (≈ 2060 µg/mL). Moreover, in assay [4], the MIC was 28 ± 8 mM (≈ 3610 µg/mL), the MBEC turned out to be 28 ± 8 mM and the MBC is 28 ± 8 mM (≈ 3610 µg/mL). In assay [5], this compound showed an MIC of 8.1 ± 0 mM (≈ 1040 µg/mL), an MBEC of 8.1 ± 0 mM and an MBC of 8.1 ± 0 mM (≈ 1040 µg/mL).
Regarding Sodium hydrogen arsenate [AsO4^2−], the MIC is reported as 15 ± 0 mM in assay [3], over 59 mM in assay [4] and 7.4 ± 0 mM in assay [5]. Moreover, the MBEC in assay [3] is over 59 mM; in assay [4], over 59 mM; in assay [5], over 60 mM. The MBC is given as over 59 mM in assay [3], over 59 mM in assay [4] and over 60 mM in assay [5].
For the compound `[Cl][Hg][Cl]` [Hg^2+, mercuric chloride], in assay [3], the MIC stood at 0.020 mM, the MBEC turned out to be 0.080 ± 0 mM and the MBC is 0.080 ± 0 mM. In addition, in assay [4], the MIC turned out to be 0.38 ± 0.14 mM, the MBEC turned out to be 0.43 ± 0.16 mM and the MBC came to 0.53 ± 0.39 mM. In addition, in assay [5], the MIC amounted to 0.07 ± 0.05 mM, the MBEC was 0.07 ± 0.05 mM and the MBC is 0.07 ± 0.05 mM.
In assay [3], `O=[N+]([O-])[O-].[Ag+]` [Ag^+, silver nitrate] came in with an MIC of 0.30 ± 0 mM, an MBEC of over 9.5 mM and an MBC of 9.5 ± 0 mM. In assay [4], this compound came in with an MIC of 0.30 ± 0 mM, an MBEC of 0.40 ± 0.17 mM and an MBC of 0.30 ± 0 mM. In assay [5], the MIC is reported as 0.06 ± 0.02 mM, the MBEC amounted to 0.07 ± 0.02 mM and the MBC was 0.09 ± 0.04 mM.
Sodium arsenite [AsO2^−]: the MIC in assay [3] is on record as 9.6 ± 0 mM; in assay [4], over 77 mM; in assay [5] it was 2.4 ± 0 mM. In addition, the values for the MBEC in assay [3], in assay [4] and in assay [5] were over 77 mM, over 77 mM and 77 ± 0 mM, respectively. Moreover, the MBC was over 77 mM in assay [3], over 77 mM in assay [4] and 77 ± 0 mM in assay [5].
On to `O=S(=O)([O-])[O-].[Mn+2]` [Mn^2+, manganous sulfate], for which the MIC in assay [3] was 12 ± 5 mM; in assay [4] it was over 149 mM; in assay [5], 37 ± 0 mM. The figures for the MBEC in assay [3], in assay [4] and in assay [5] were over 149 mM, over 149 mM and 199 ± 86 mM, respectively. The MBC in assay [3] was over 149 mM; in assay [4], over 149 mM; in assay [5] it was 199 ± 86 mM.
Take `[Na+].[Na+].[O]=[W](=[O])([O-])[O-]` [WO4^2−, sodium tungstate]: in assay [3], the MIC is over 66 mM, the MBEC is on record as over 66 mM and the MBC is over 66 mM. Besides, in assay [4], the MIC is recorded as over 66 mM, the MBEC is on record as over 66 mM and the MBC is recorded as over 66 mM. In assay [5], this compound had an MIC of over 66 mM, an MBEC of over 66 mM and an MBC of over 66 mM.
In assay [3], `O=[Te]([O-])[O-].[K+].[K+]` [TeO3^2−, potassium tellurite] gave an MIC of 0.18 ± 0 mM, an MBEC of 0.73 ± 0 mM and an MBC of over 0.73 mM. In assay [4], this compound returned an MIC of 0.73 ± 0 mM, an MBEC of 4.4 ± 1.7 mM and an MBC of 5.1 ± 0 mM. In assay [5], this compound yielded an MIC of 0.006 mM, an MBEC of 0.014 mM and an MBC of 0.016 mM.
In assay [3], `O=[Te](=O)([O-])[O-].[K+].[K+]` [TeO4^2−, potassium tellurate] yielded an MIC of 0.67 ± 0 mM, an MBEC of 1.3 ± 0.7 mM and an MBC of over 1.3 mM. Also, in assay [4], the MIC is recorded as over 1.3 mM, the MBEC is recorded as over 1.3 mM and the MBC is listed as over 1.3 mM. In assay [5], this compound came in with an MIC of 0.06 ± 0.02 mM, an MBEC of 0.42 ± 0.17 mM and an MBC of 0.42 ± 0.17 mM.
With `NCC[C@H](O)C(=O)N[C@@H]1C[C@H](N)[C@@H](O[C@H]2O[C@H](CN)[C@@H](O)[C@H](O)[C@H]2O)[C@H](O)[C@H]1O[C@H]1O[C@H](CO)[C@@H](O)[C@H](N)[C@H]1O` [Amikacin], the “MIC in the presence of Cu^2+, times less than the MIC for the antibiotic alone” value in assay [6] (200 μg/ml Cu^2+) came to 256 times. The MBC is over 64 µg/mL in assay [6] (setting [7]); 256 µg/mL in assay [6] (setting [8]); 224 ± 64 µg/mL (≈ 383 µM) in assay [2] (ATCC27853, P. aeruginosa ATCC 27853 planktonic, CA-MHB, 24 h exposure, read-out: MBC). In addition, the MIC was 0.125 µg/mL in assay [6] (setting [7]); 32 µg/mL in assay [6] (setting [8]); 32 µg/mL (≈ 54.6 µM) in assay [2] (ATCC27853, P. aeruginosa ATCC 27853, CA-MHB, 24 h exposure, read-out: MIC). For the same compound, the MBEC in assay [6] (setting [7]) is over 64 µg/mL; in assay [6] (setting [8]) it was over 512 µg/mL; in assay [2] (CA-MHB, 24 h exposure) it was over 512 µg/mL.
On to `[Na+].[Na+].[O]=[Mo](=[O])([O-])[O-]` [MoO4^2−, sodium molybdate], for which the MIC in assay [3], in assay [4] and in assay [5] was over 102 mM in each case. Moreover, the MBEC in assay [3], in assay [4] and in assay [5] was over 102 mM in each case. Further, the MBC in assay [3], in assay [4] and in assay [5] was over 102 mM each time.
In assay [3], `[Cl][Cd][Cl]` [Cd^2+, Cadmium chloride] showed an MIC of 0.25 ± 0.07 mM, an MBEC of 15.9 ± 4.6 mM and an MBC of 18.2 ± 0 mM. Further, in assay [4], the MIC came out at 4.6 ± 0 mM, the MBEC is listed as 36 ± 0 mM and the MBC turned out to be 36 ± 0 mM. Further, in assay [5], the MIC amounted to 1.1 ± 0 mM, the MBEC was found to be 2.3 ± 0 mM and the MBC came to 2.3 ± 0 mM.
In assay [1] (E. coli JM109, CA-MHB, 24 h exposure), `CCN1CCN(C(=O)N[C@@H](C(=O)N[C@@H]2C(=O)N3[C@@H]2SC(C)(C)[C@@H]3C(=O)O)c2ccccc2)C(=O)C1=O` [Pipperacillin, Piperacillin] registered an MIC of 4 ± 0 µg/mL (≈ 7.73 µM). The MBEC in assay [1] (CA-MHB, 24 h exposure) was 32 ± 0 µg/mL. Besides, the MBC in assay [1] (E. coli JM109 planktonic, CA-MHB, 24 h exposure) came to 16 ± 0 µg/mL (≈ 30.9 µM).
In assay [3], `[Cl][Sn][Cl]` [Sn^2+, stannous chloride] registered an MIC of 8.6 ± 0 mM, an MBEC of 17.3 ± 0 mM and an MBC of 17.3 ± 0 mM. In assay [4], this compound yielded an MIC of 17 ± 0 mM, an MBEC of 17 ± 0 mM and an MBC of 22 ± 9 mM. Moreover, in assay [5], the MBEC amounted to 17 ± 0 mM and the MBC is recorded as 17 ± 0 mM.
